In ChEMBL document CHEMBL3885861, “Open TG-GATES”:

Species on record: Rattus norvegicus
Experiment: Open TG-GATES - Regimen: Single
Assay type: toxicity, organism-based, Sprague-Dawley
Set-up: regimen Single, gender Male, age 6 weeks
Conditions: in vivo, po, 0 mg/kg, route gavage, dose level Control; for APTT / Bas / Eos / Fbg / Ht / MCH / MCHC / MCV / Mono / PT / Plat / RBC / Ret / WBC: tissue Blood; for KIDNEY_L / KIDNEY_R / KIDNEY_TOTAL: tissue Kidney; for LIVER: tissue Liver; for ALP / AST / BUN / CRE / Ca / Cl / DBIL / GLC / IP / K / LDH / Na / PL / RALB / TBIL / TC / TG / TP / gamma-GTP: tissue Plasma

SMILES: CC(=O)Nc1nnc(S(N)(=O)=O)s1 [ACETAZOLAMIDE]
- TERMINAL_BW (3 h): 214.4 g
- APTT (3 h): 22 s
- Bas (3 h): 0%
- Eos (3 h): 0.8%
- Fbg (3 h): 309 mg/dL
- Ht (3 h): 39.4%
- MCH (3 h): 21.3 pg
- MCHC (3 h): 32.9%
- MCV (3 h): 64.8 fL
- Mono (3 h): 2.4%
- PT (3 h): 16.5 s
- Plat (3 h): 118.6 x10_4/uL
- RBC (3 h): 608.6 x10_4/ul
- Ret (3 h): 8.8%
- WBC (3 h): 89.5 x10_2/uL
- KIDNEY_L (3 h): 0.9 g
- KIDNEY_R (3 h): 0.9 g
- KIDNEY_TOTAL (3 h): 1.9 g
- LIVER (3 h): 9.8 g
- ALP (3 h): 1586.4 IU/L
- AST (3 h): 80.2 IU/L
- BUN (3 h): 12 mg/dL
- CRE (3 h): 0.2 mg/dL
- Ca (3 h): 11.1 mg/dL
- Cl (3 h): 106.4 meq/L
- DBIL (3 h): 0 mg/dL
- GLC (3 h): 187.4 mg/dL
- IP (3 h): 8.2 mg/dL
- K (3 h): 4 meq/L
- LDH (3 h): 235.8 IU/L
- Na (3 h): 143 meq/L
- PL (3 h): 137.6 mg/dL
- RALB (3 h): 3.1 g/dL
- TBIL (3 h): 0.018 mg/dL
- TC (3 h): 78 mg/dL
- TG (3 h): 59.8 mg/dL
- TP (3 h): 5.4 g/dL
- gamma-GTP (3 h): 1 IU/L
- TERMINAL_BW (6 h): 207.4 g
- APTT (6 h): 22.1 s
- Bas (6 h): 0%
- Eos (6 h): 0.8%
- Fbg (6 h): 320.2 mg/dL
- Ht (6 h): 39.1%
- MCH (6 h): 20.8 pg
- MCV (6 h): 62.8 fL
- Mono (6 h): 2%
- PT (6 h): 16.5 s
- Plat (6 h): 131.7 x10_4/uL
- RBC (6 h): 622.4 x10_4/ul
- Ret (6 h): 8.3%
- WBC (6 h): 79.7 x10_2/uL
- KIDNEY_L (6 h): 1 g
- KIDNEY_R (6 h): 0.9 g
- KIDNEY_TOTAL (6 h): 1.9 g
- LIVER (6 h): 9 g
- ALP (6 h): 1340.2 IU/L
- AST (6 h): 63.4 IU/L
- CRE (6 h): 0.1 mg/dL
- Ca (6 h): 11 mg/dL
- Cl (6 h): 105 meq/L
- DBIL (6 h): 0 mg/dL
- GLC (6 h): 186.6 mg/dL
- IP (6 h): 9.4 mg/dL
- K (6 h): 4.3 meq/L
- LDH (6 h): 183.6 IU/L
- Na (6 h): 141 meq/L
- PL (6 h): 127.8 mg/dL
- RALB (6 h): 3 g/dL
- TBIL (6 h): 0.024 mg/dL
- TC (6 h): 78 mg/dL
- TG (6 h): 48.2 mg/dL
- TP (6 h): 5.3 g/dL
- gamma-GTP (6 h): 1.2 IU/L
- TERMINAL_BW (9 h): 212.2 g
- APTT (9 h): 21.9 s
- Bas (9 h): 0%
- Eos (9 h): 0.6%
- Fbg (9 h): 293 mg/dL
- Ht (9 h): 39.7%
- MCH (9 h): 20.8 pg
- MCHC (9 h): 32.3%
- MCV (9 h): 64.3 fL
- Mono (9 h): 2.2%
- PT (9 h): 16.8 s
- Plat (9 h): 115.3 x10_4/uL
- RBC (9 h): 616.6 x10_4/ul
- Ret (9 h): 8.4%
- WBC (9 h): 84.8 x10_2/uL
- KIDNEY_L (9 h): 1 g
- KIDNEY_R (9 h): 1 g
- KIDNEY_TOTAL (9 h): 1.9 g
- LIVER (9 h): 8.8 g
- ALP (9 h): 1423.8 IU/L
- AST (9 h): 70.8 IU/L
- BUN (9 h): 11 mg/dL
- CRE (9 h): 0.1 mg/dL
- Ca (9 h): 10.9 mg/dL
- Cl (9 h): 104.8 meq/L
- DBIL (9 h): 0 mg/dL
- GLC (9 h): 193 mg/dL
- IP (9 h): 9.3 mg/dL
- K (9 h): 4.1 meq/L
- LDH (9 h): 163.2 IU/L
- Na (9 h): 141.6 meq/L
- PL (9 h): 113.2 mg/dL
- RALB (9 h): 3.1 g/dL
- TBIL (9 h): 0.024 mg/dL
- TC (9 h): 70.2 mg/dL
- TG (9 h): 49.8 mg/dL
- TP (9 h): 5.4 g/dL
- gamma-GTP (9 h): 1.2 IU/L
- TERMINAL_BW (24 h): 228.8 g
- APTT (24 h): 20.3 s
- Bas (24 h): 0%
- Eos (24 h): 0.6%
- Fbg (24 h): 288.8 mg/dL
- Ht (24 h): 38.7%
- MCH (24 h): 20.8 pg
- MCHC (24 h): 33.2%
- MCV (24 h): 62.9 fL
- Mono (24 h): 1.6%
- PT (24 h): 16.1 s
- Plat (24 h): 110.7 x10_4/uL
- RBC (24 h): 616.2 x10_4/ul
- Ret (24 h): 7.9%
- WBC (24 h): 66.7 x10_2/uL
- KIDNEY_L (24 h): 1 g
- KIDNEY_R (24 h): 1 g
- KIDNEY_TOTAL (24 h): 2 g
- LIVER (24 h): 10.7 g
- ALP (24 h): 1945.2 IU/L
- AST (24 h): 80.8 IU/L
- BUN (24 h): 15.8 mg/dL
- CRE (24 h): 0.1 mg/dL
- Ca (24 h): 10.7 mg/dL
- Cl (24 h): 105.8 meq/L
- DBIL (24 h): 0 mg/dL
- GLC (24 h): 201.2 mg/dL
- IP (24 h): 7.7 mg/dL
- K (24 h): 4.1 meq/L
- LDH (24 h): 185.8 IU/L
- Na (24 h): 141.6 meq/L
- PL (24 h): 137.4 mg/dL
- RALB (24 h): 3 g/dL
- TBIL (24 h): 0.004 mg/dL
- TC (24 h): 71.8 mg/dL
- TG (24 h): 97 mg/dL
- TP (24 h): 5.4 g/dL
